According to patent US5420143A, “Piperidine derivatives for treating allergy” (Kowa Co., Ltd., priority 1993, dated 1995):

Columns and labels:
[1] = test system: ileum isolated from guinea pigs, contraction induced by leukotriene D4; assay: Inhibition of leukotriene D4 induced contraction of isolated guinea pig ileum (antileukotriene activity); details: Average ± S.D.; leukotriene D4 1×10^-8 M; 30 minutes incubation with test compound; test compound concentration not given
Description: (§1) Antihistamine activity and antileukotriene activity:
(§2) The first three constant constractions induced by histamine (1×10^-5 M) or leukotriene D4 (1×10^-8 M) were used as the reference for the calculation of the inhibitory ratio. After repeated washings until contraction movement recurred, ileal strip was incubated with the test compound for 30 minutes. The contraction test was then conducted again using histamine or leukotriene D4. The inhibitory ratio (%) of the test compound on the ileum was calculated according to the following equation: [formula]

[2] = test system: ileum isolated from guinea pigs, contraction induced by histamine; assay: Inhibition of histamine-induced contraction of isolated guinea pig ileum (antihistamine activity); details: Average ± S.D.; histamine 1×10^-5 M; 30 minutes incubation with test compound; test compound concentration not given
Description: as §1, §2

Leukotriene D4 receptors = molecular target: T1, Leukotriene D4 receptors (Cavia porcellus, UniProt Q2NNR5); assay: Binding assay on Leukotriene D4 receptors (guinea-pig lung membrane protein, [^3 H]-leukotriene D4)
T1 construct: Preparation of guinea-pig lung membrane protein; from tissue; host or cells: guinea-pig lung membranes
T1 sequence (Q2NNR5 1-340): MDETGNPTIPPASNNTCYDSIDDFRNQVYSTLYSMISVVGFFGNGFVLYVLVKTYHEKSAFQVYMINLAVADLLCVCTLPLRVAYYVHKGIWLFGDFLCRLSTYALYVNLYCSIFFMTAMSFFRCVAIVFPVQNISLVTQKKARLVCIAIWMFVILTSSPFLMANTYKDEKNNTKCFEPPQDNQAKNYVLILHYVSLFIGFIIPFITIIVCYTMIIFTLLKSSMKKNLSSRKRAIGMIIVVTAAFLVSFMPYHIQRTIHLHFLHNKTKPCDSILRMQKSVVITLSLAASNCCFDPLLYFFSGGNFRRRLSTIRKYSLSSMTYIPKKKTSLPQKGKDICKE
Text: Binding assay on Leukotriene D4 receptors:
a) Preparation of guinea-pig lung membrane protein:

Structure (SMILES)	Inhibition vs leukotriene D4 induced contraction (%) [1]	Inhibition vs histamine-induced contraction (%) [2]	antileukotriene activity (nature of the activity) (Leukotriene D4 receptors; binding assay on leukotriene D4 receptors)	Kd (Leukotriene D4 receptors; read-out: binding affinity on leukotriene D4 receptors (Kd))
O=c1cc(-c2nnn[nH]2)oc2cc(OCCCN3CCC(=C(c4ccccc4)c4ccccc4)CC3)ccc12 [Compound (1), 7-[3-(4-Diphenylmethylenepiperidin-1-yl)propyloxy]-2-(5-tetrazolyl)-4-oxo-4H-benzopyran]	15 ± 1%	52 ± 7%	antagonistic	2320 nM
CCCc1c(OCC(O)COc2ccc3c(=O)cc(C(=O)O)oc3c2CCC)ccc(C(C)=O)c1O (centres unmarked) [FPL-55712]	11 ± 4%	0%		
CC(C)(C)c1ccc(C(O)CCCN2CCC(C(O)(c3ccccc3)c3ccccc3)CC2)cc1 (centres unmarked) [Terfenadine]	0%	5 ± 1%		
